The target in one assay is T1, MAT2A (Homo sapiens, UniProt P31153).
T1 construct: purchased BPS Bioscience (USA) 71401
Nature of the assay: MAT2A inhibitory activity, colorimetric phosphate detection (PiColorLock) enzyme assay. Conditions: Test Condition 1 or 2 (not stated which per compound); absorbance at 630 nm. Type of assay: biochemical. The method, then: In vitro assay: Methionine and adenosine triphosphate (ATP) are converted into S-adenosylmethionine (SAM) and inorganic phosphate (pi) via the catalytic action of methionine adenosyltransferase 2A (MAT2A). The produced pi is detected by the PiColorLock™ Phosphate Detection Reagent, which is a colorimetric assay, and the activity of MAT2A can be evaluated according to the amount of pi generated during the enzyme reaction. Each compound was evaluated under Test Condition 1 or 2 as described below.
• Concentration of MAT2A inhibitor: maximum concentration of 50 µM, 5-fold dilution (7 groups in total) • MAT2A concentration: 12 ng/µL • ATP and Met concentration: 100 µM, 80 µM
• Concentration of MAT2A inhibitor: maximum concentration of 1 µM, 3-fold dilution (7 groups in total) • MAT2A concentration: 4 ng/µL • ATP and Met concentration: 300 µM, 150 µM • Reagents: Methionine (catalog number M5308) and ATP (catalog number A2383) were purchased from Sigma-Aldrich (USA). MAT2A (catalog number 71401) was purchased from BPS Bioscience (USA), and PiColorLock™ Phosphate Detection Reagent (catalog number 303-0030) was purchased from Novus (USA).
Assay buffer composition: 50 mM Tris-HCl pH 8.0, 50 mM KCI, 15 mM MgCl2, 0.3 mM EDTA, 0.005 % (w/v) BSA
Experimental procedure: Each compound was diluted 5-fold or 3-fold based on the maximum concentration (5 mM or 1 mM or 0.1 mM) using DMSO. The diluted compounds were diluted 20-fold using assay buffer, and then mixed at a volume ratio of 1:2 with MAT2A (30 ng/µL or 10 ng/µL) diluted with assay buffer and treated for 30 minutes at room temperature. The negative control group is a group untreated with both the MAT2A enzyme and the compound according to an embodiment of the present application, and the positive control group is a group treated only with the MAT2A enzyme and untreated with the compound according to an embodiment of the present application.
In each well of a 384-well plate, 30 µL of the mixed solution and 20 µL of a 1:1 mixed solution of ATP (0.5 mM or 1.5 mM) and Met (0.4 mM or 0.75 mM) were mixed and then treated for 1 hour at room temperature. After the enzyme reaction, 13 µL of a 100:1 mixed solution of PiColorLockTM and Accelerator was treated in each well and reacted for 5 minutes at room temperature. After treating 5 µL of Stabilizer in each well and reacting for 25 minutes at room temperature, the absorbance at 630 nm was measured using SpectraMax M4 (Molecular Devices, USA) to calculate the IC50 value of the compound.
Analysis method: The enzyme activity (%) of each experimental group was calculated as {(average O.D. of compound-treated group - average O.D. of negative control group)/(average O.D. of positive control group - average O.D. of negative control group)} * 100. After preparing a dose-response curve (4-parameter) using the enzyme activity according to the treatment concentration of each compound in GraphPad Prism 9, the 50 % of enzyme inhibitory activity value (IC50) was calculated through non-linear regression analysis. The IC50 results measured for the MAT2A activity inhibitory ability of the compounds according to an embodiment of the present application are shown in Table 2 (+++: more than 1 to 100 nM, ++: more than 100 to 1,000 nM, +: more than 1,000 to 10,000 nM, -: more than 10,000 nM).

Assay [1] relates to HCT116 (MTAP del) cell line. As to the kind of experiment: Cell proliferation inhibition in MTAP-deficient cancer cells, WST-1 assay. Type of assay: cell-based. Particulars: maximum concentration 10 µM, read-out: HCT116 MTAP^-/- (IC50, cell proliferation inhibited by 50%). The method, then: (§1) The HCT116 (MTAP del) cell line, which is a colorectal cancer cell line with deletion of MTAP gene, was treated with a compound according to an embodiment of the present application as a MAT2A inhibitor, and after culturing for 120 hours, the change in the number of cells was measured with a WST-1 assay reagent. The WST-1 assay is an assay that measures the number of cells by measuring the generation of a chromogenic substance called formazan from tetrazolium salts by intracellular mitochondrial dehydrogenase. In addition, as a control group, a wild-type colorectal cancer HCT116 (MTAP WT) cell line containing the MTAP gene was used to perform the experiment in the same manner as the experimental group.
(§2) Cell lines and reagents: HCT116 (MTAP WT (catalog number HD PAR-034), MTAP del (catalog number HD R02-033)) cell lines were purchased from Horizon Discovery (USA), and RPMI1640 medium (catalog number 22400-093), FBS (Fetal Bovine serum, catalog number 16000044), and Penicillin/Streptomycin (catalog number 15140-122) were purchased from GIBCO (USA). WST-1 (catalog number EZ-BULK150) was purchased from Dogen (Korea).
(§3) Experimental procedure: HCT116 (MTAP WT, MTAP del) cell lines were dispensed into a 96-well plate at a concentration of 1,000 cells/well in RPMI1640 culture medium containing 10% FBS and 1% Penicillin/Streptomycin, and allowed to attach for 24 hours. When the cells were attached to the plate, the drug was diluted 4-fold from a maximum concentration of 10 µM and treated on the cells. After 120 hours of drug treatment, 20 µL of WST-1 solution was treated for 2 hours, and absorbance at 450 nm was measured using SpectraMax M4 (Molecular Devices). Data analysis was calculated by taking the DMSO control group value as 100%. For the IC50 value, the concentration at which cell proliferation is inhibited by 50% was calculated through interpolation using a 4-parameter fit of the dose-response curve using the GraphPad Prism 8.4.3 program. The cancer cell proliferation inhibitory ability and selectivity in MTAP-deficient cancer cells of the compounds according to an embodiment of the present application are described in Table 3 (+++: 1 to 100 nM, ++: more than 100 to 1,000 nM, +: more than 1 to 10 µM, -: more than 10 µM).
In general terms: Formazan colour is commonly taken as a measure of viable cells.

For assay [2], the system named is HCT116 (MTAP WT) cell line. As to the kind of experiment: Cell proliferation inhibition in wild-type control cells, WST-1 assay. The assay is classed as cell-based. Conditions: maximum concentration 10 µM, read-out: HCT116 WT (IC50, cell proliferation inhibited by 50%). The method, then:
as §1, §2, §3

Where [3] appears, read: Homo sapiens, HCT-116, 120 h, 120 hours of drug treatment.
The mark [4] stands for this setting: Homo sapiens, HCT-116, 120 hours of drug treatment.

This passage reports IC50 results from patent EP4759814A1, “TRICYCLIC COMPOUND AND USE THEREOF AS MAT2A INHIBITOR” (SK Biopharmaceuticals Co., Ltd., priority 2023, dated 2025).

Read-outs that look alike come from different tables or passages of the source.

T1 sequence (P31153 whole entry): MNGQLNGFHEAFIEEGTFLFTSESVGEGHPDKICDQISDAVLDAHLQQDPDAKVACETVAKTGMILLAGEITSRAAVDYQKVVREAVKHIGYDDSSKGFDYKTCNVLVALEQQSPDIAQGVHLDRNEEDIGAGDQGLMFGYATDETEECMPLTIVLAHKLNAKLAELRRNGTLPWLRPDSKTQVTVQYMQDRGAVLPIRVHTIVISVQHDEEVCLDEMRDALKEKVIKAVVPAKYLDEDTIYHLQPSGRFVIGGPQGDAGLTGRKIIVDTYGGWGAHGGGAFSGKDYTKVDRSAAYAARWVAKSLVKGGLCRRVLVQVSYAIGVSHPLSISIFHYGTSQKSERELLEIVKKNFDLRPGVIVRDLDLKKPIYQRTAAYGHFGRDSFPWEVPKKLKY

In the case of `Cc1ccccc1-n1c(=O)c2nccn2c2ccc(Cl)cc21` (atropisomer, axis not shown; (Ra)) [Example 20, (Ra)-7-chloro-5-(o-tolyl)imidazo[1,2-a]quinoxalin-4(5H)-one], the IC50 (at MAT2A; in assay [1] (120 hours of drug treatment); in assay [2] (120 hours of drug treatment)) was > 10 µM throughout.

On to `Cc1ccccc1-n1c(=O)c2nccn2c2ccc(Cl)cc21` (atropisomer, axis not shown; (Sa)) [Example 21, (Sa)-7-chloro-5-(o-tolyl)imidazo[1,2-a]quinoxalin-4(5H)-one], for which the IC50 on MAT2A is 0.001 to 0.1 µM; in assay [1] (120 hours of drug treatment), 0.001 to 0.1 µM; in assay [2] (120 hours of drug treatment), > 10 µM.

With `Cc1ncccc1-n1c(=O)c2nccn2c2cc(Cl)c(Br)cc21` (atropisomer, axis not shown; (Sa)) [Example 81, (Sa)-7-bromo-8-chloro-5-(2-methylpyridin-3-yl)imidazo[1,2-a]quinoxalin-4(5H)-one], the IC50 in assay [1] (setting [3]) is 0.001 to 0.1 µM; in assay [2] (120 hours of drug treatment), 1 to 10 µM.

Regarding `Cc1cc2c(cc1C(F)(F)F)n(-c1cccnc1C)c(=O)c1nccn12` (atropisomer, axis not shown; (Sa)) [Example 95, (Sa)-8-methyl-5-(2-methylpyridin-3-yl)-7-(trifluoromethyl)imidazo[1,2-a]quinoxalin-4(5H)-one], the IC50 in assay [1] (setting [3]) is 0.001 to 0.1 µM; in assay [2] (120 hours of drug treatment) it was > 10 µM.

Consider `Cc1ncccc1-n1c(=O)c2nccn2c2cc(Cl)c(C(F)(F)F)cc21` (atropisomer, axis not shown; (Sa)) [Example 98, (Sa)-8-chloro-5-(2-methylpyridin-3-yl)-7-(trifluoromethyl)imidazo[1,2-a]quinoxalin4(5H)-one], for which the IC50 in assay [1] (setting [3]) is 0.001 to 0.1 µM; in assay [2] (120 hours of drug treatment) it was > 10 µM.

Turning to `CCc1ncccc1-n1c(=O)c2nccn2c2cc(Cl)c(C(F)(F)F)cc21` (atropisomer, axis not shown; (Sa)) [Example 112, (Sa)-8-chloro-5-(2-ethylpyridin-3-yl)-7-(trifluoromethyl)imidazo[1,2-a]quinoxalin4(5H)-one], the IC50 in assay [1] (setting [3]) is > 10 µM.

With `Cc1ccccc1-n1c(=O)c2nccn2c2ccc(Cl)cc21` [Example 1, 7-chloro-5-(o-tolyl)imidazo[1,2-a]quinoxalin-4(5H)-one], the IC50 is 0.1 to 1 µM against MAT2A, 0.1 to 1 µM in assay [1] (setting [4]) and > 10 µM in assay [2] (setting [4]).

Take `O=c1c2nccn2c2ccc(Cl)cc2n1-c1ccccc1` [Example 2, 7-chloro-5-phenylimidazo[1,2-a]quinoxalin-4(5H)-one]: the IC50 against MAT2A is 0.1 to 1 µM; in assay [1] (setting [4]), 1 to 10 µM; in assay [2] (setting [4]), > 10 µM.

Take `CCc1ccccc1-n1c(=O)c2nccn2c2ccc(Cl)cc21` [Example 3, 7-chloro-5-(2-ethylphenyl)imidazo[1,2-a]quinoxalin-4(5H)-one]: the IC50 against MAT2A is 0.1 to 1 µM; in assay [1] (setting [4]) it was 0.1 to 1 µM; in assay [2] (setting [4]), > 10 µM.

In the case of `Cc1cccc(-n2c(=O)c3nccn3c3ccc(Cl)cc32)c1C` [Example 4, 7-chloro-5-(2,3-dimethylphenyl)imidazo[1,2-a]quinoxalin-4(5H)-one], the IC50 on MAT2A was 0.1 to 1 µM; in assay [1] (setting [4]) it was 0.1 to 1 µM; in assay [2] (setting [4]), > 10 µM.

`CC(C)c1ccccc1-n1c(=O)c2nccn2c2ccc(Cl)cc21` [Example 5, 7-chloro-5-(2-isopropylphenyl)imidazo[1,2-a]quinoxalin-4(5H)-one]: the IC50 was 0.1 to 1 µM on MAT2A, 1 to 10 µM in assay [1] (setting [4]) and > 10 µM in assay [2] (setting [4]).

For the compound `Cc1c(F)cccc1-n1c(=O)c2nccn2c2ccc(Cl)cc21` [Example 6, 7-chloro-5-(3-fluoro-2-methylphenyl)imidazo[1,2-a]quinoxalin-4(5H)-one], the results for the IC50 (against MAT2A; in assay [1] (setting [4]); in assay [2] (setting [4])) were 0.1 to 1 µM, 0.1 to 1 µM and 1 to 10 µM, respectively.

In turn, `CCOc1cc(C(F)(F)F)cc2c1n1ccnc1c(=O)n2-c1cccnc1C` [Example 118, 9-ethoxy-5-(2-methylpyridin-3-yl)-7-(trifluoromethyl)imidazo[1,2-a]quinoxalin-4(5H)-one] displayed an IC50 on MAT2A of 0.001 to 0.1 µM.
